Results on eleven molecules are retold here after US11208400B2, “Substituted 6-(1H-pyrazol-1-yl)pyrimidin-4-amine derivatives and uses thereof” (Bayer Aktiengesellschaft, priority 2016, dated 2021).

Molecules are shown by their SMILES.

The experiment addresses T1, human Npt2a (Homo sapiens, UniProt Q06495).
T1 construct: expressed in transfected cells
T1 sequence (Q06495 1-639): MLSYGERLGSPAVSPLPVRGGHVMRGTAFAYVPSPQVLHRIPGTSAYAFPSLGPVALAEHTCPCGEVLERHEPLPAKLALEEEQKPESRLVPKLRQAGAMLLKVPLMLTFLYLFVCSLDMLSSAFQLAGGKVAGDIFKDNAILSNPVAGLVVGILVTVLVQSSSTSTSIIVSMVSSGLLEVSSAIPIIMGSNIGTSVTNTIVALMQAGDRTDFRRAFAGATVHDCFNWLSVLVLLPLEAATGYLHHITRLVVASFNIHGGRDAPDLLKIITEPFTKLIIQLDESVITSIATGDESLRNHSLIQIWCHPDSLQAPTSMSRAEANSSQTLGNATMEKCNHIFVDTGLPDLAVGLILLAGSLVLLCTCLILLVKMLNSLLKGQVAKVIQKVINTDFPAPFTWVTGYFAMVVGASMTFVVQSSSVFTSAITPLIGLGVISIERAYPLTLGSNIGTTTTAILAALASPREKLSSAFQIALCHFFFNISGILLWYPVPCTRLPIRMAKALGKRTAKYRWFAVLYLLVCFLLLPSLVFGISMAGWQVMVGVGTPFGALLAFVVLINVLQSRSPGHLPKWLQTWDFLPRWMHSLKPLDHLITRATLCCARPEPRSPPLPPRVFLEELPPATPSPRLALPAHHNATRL
Put plainly: Npt2a activity cell based assay, membrane potential dye, CHO T-REx hNpt2a cells. The settings on record: doxycycline-induced, depolarization by sodium phosphate influx, average or median values if tested more than once. Put shortly: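 Cells were doxycycline-induced CHO T-REx hNpt2a, dye-loaded and pretreated 5 min at RT with 1 nM–50 μM compound in Na-free pH 7.4 buffer. IC50 was fit to the post/pre-trigger fluorescence ratio.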
Regarding `COc1c(-c2ccc(C#N)cc2)nn(CC2CC2)c1Nc1cc(-n2nc(C)c(C(C)O)c2C)ncn1` (racemic) [Example 331, (±)-4-{1-(cyclopropylmethyl)-5-[(6-{4-[(1S)-1-hydroxyethyl]-3,5-dimethyl-1H-pyrazol-1-yl}pyrimidin-4-yl)amino]-4-methoxy-1H-pyrazol-3-yl}benzonitrile], the IC50 (in general, the point on the concentration scale where inhibition reaches its midpoint) was 2800 nM.
Next, `CCc1c(Nc2cc(-n3nc(C)c(CC4(O)CC4)c3C)ncn2)nn(C)c1-c1ccc(F)cc1` [Example 256, 1-{[1-(6-{[4-ethyl-5-(4-fluorophenyl)-1-methyl-1H-pyrazol-3-yl]amino}pyrimidin-4-yl)-3,5-dimethyl-1H-pyrazol-4-yl]methyl}cyclopropanol]: 35 nM.
Next, `CCc1c(Nc2cc(-n3nc(C)cc3C)ncn2)nn(C)c1-c1ccc(F)cc1` [Example 1, 6-(3,5-dimethyl-1H-pyrazol-1-yl)-N-[4-ethyl-5-(4-fluorophenyl)-1-methyl-1H-pyrazol-3-yl]pyrimidin-4-amine]: 4.48 nM; `CCOC(=O)c1c(C)nn(-c2cc(Nc3c(Cl)c(-c4ccc(F)cc4)nn3C)ncn2)c1C` [Example 449, ethyl 1-(6-{[4-chloro-3-(4-fluorophenyl)-1-methyl-1H-pyrazol-5-yl]amino}pyrimidin-4-yl)-3,5-dimethyl-1H-pyrazole-4-carboxylate]: 8 nM; `Cc1cc(C)n(-c2cc(Nc3c(C)c(-c4ccc(F)cc4)nn3CC(O)C3CC3)ncn2)n1` (single isomer, unassigned) [Example 371, 1-cyclopropyl-2-[5-{[6-(3,5-dimethyl-1H-pyrazol-1-yl)pyrimidin-4-yl]amino}-3-(4-fluorophenyl)-4-methyl-1H-pyrazol-1-yl]ethanol]: 240 nM.
Next, `Cc1nn(-c2cc(Nc3c(C4CC4)c(-c4ccc(F)cc4)nn3C)ncn2)c(C)c1Cl` [Example 45, 6-(4-chloro-3,5-dimethyl-1H-pyrazol-1-yl)-N-[4-cyclopropyl-3-(4-fluorophenyl)-1-methyl-1H-pyrazol-5-yl]pyrimidin-4-amine]: 29 nM; `Cc1nn(-c2cc(Nc3c(C)c(-c4ccc(F)cc4)nn3CC3CC3)ncn2)c(C)c1CN1CC(F)(F)C1` [Example 390, N-[1-(cyclopropylmethyl)-3-(4-fluorophenyl)-4-methyl-1H-pyrazol-5-yl]-6-{4-[(3,3-difluoroazetidin-1-yl)methyl]-3,5-dimethyl-1H-pyrazol-1-yl}pyrimidin-4-amine]: 25 nM.
Turning to `Cc1cc(C)n(-c2cc(Nc3nn(C)c(-c4ccccc4)c3Cl)ncn2)n1` [Example 52, N-(4-chloro-1-methyl-5-phenyl-1H-pyrazol-3-yl)-6-(3,5-dimethyl-1H-pyrazol-1-yl)pyrimidin-4-amine], the concentration for half-maximal inhibition (IC50) was determined as 83 nM.
Next, `CCc1c(Nc2cc(-n3nc(C)c4ncccc43)ncn2)nn(C)c1-c1ccc(F)cc1` [Example 223, N-[4-ethyl-5-(4-fluorophenyl)-1-methyl-1H-pyrazol-3-yl]-6-(3-methyl-1H-pyrazolo[4,3-b]pyridin-1-yl)pyrimidin-4-amine]: 36 nM; `CCc1c(-c2ccc(C#N)cc2)nn(CC2CC2)c1Nc1cc(-n2nc(C)c(Cl)c2C)ncn1` [Example 157, 4-[5-{[6-(4-chloro-3,5-dimethyl-1H-pyrazol-1-yl)pyrimidin-4-yl]amino}-1-(cyclopropylmethyl)-4-ethyl-1H-pyrazol-3-yl]benzonitrile]: 6 nM; `Cc1nn(-c2cc(Nc3c(C)c(-c4ccc(F)cc4)nn3CC3CC3)ncn2)c(C)c1C1(C(F)(F)F)OCCO1` [Example 517, N-[1-(cyclopropylmethyl)-3-(4-fluorophenyl)-4-methyl-1H-pyrazol-5-yl]-6-{3,5-dimethyl-4-[2-(trifluoromethyl)-1,3-dioxolan-2-yl]-1H-pyrazol-1-yl}pyrimidin-4-amine]: 29 nM.
